Our source for the viability, T/C and IC50 values is PubChem BioAssay AID2060485 (Molecular Pharmacology Branch, DTP, NCI, 2025).

The test has as its system A375 multi-cell spheroids with HUVEC/MSC, viability. The test is described as follows: Anticancer human tumor A375 cell line growth inhibition [GQUAD].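 As to all read-outs here: spheroids exposed to compounds for seven days before readout.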 The note with it: for viability, T/C: stronger effect = lower value. An excerpt:
DNA G-quadruplex Stabilizer Agents in Combinations in Complex Spheroids
A high-throughput screen of multi-cell type tumor spheroids was designed to identify active combinations of DNA G-quadruplex stabilizer agents and targeted small molecules. Complex spheroids include a stromal component modeled by human endothelial cells (HUVEC) and fibroblasts modeled by human mesenchymal stem cells (MSCs). The concentration ranges selected for each drug and investigational agent were based upon clinically achievable concentrations if the clinical Cmax of the agent was known.
Compounds. The drugs and investigational agents: pidnarulex (CX-5461; NSC782164), APTO-253 (NSC789042), BRACO-19 (NSC847499), peposertib (NSC802822), ceralasertib (NSC780249), elimusertib (NSC800525), camonsertib (NSC841442), AZD-1390 (NSC803789), olaparib (NSC753686), talazoparib (NSC767125), ART-558 (NSC835418), sotorasib (NSC818433), MRTX-1133 (NSC836407), SN-38 (NSC673596), topotecan (NSC609699), etoposide (NSC141540), doxorubicin (NSC123127), gemcitabine (NSC613327), 5-fluorouracil (NSC19893), paclitaxel (NSC125973), vemurafenib (NSC761431), panobinostat (NSC761190), R-306465 (JNJ-16241199; NSC773264), adavosertib (NSC754352), TP-3654 (NSC805149), carboplatin (NSC241240), KSQ-4279 (NSC840948), and staurosporine (NSC755774) were obtained from the National Cancer Institute (NCI) Developmental Therapeutics Program Chemical Repository (34). The FDA-approved anticancer drug set is available from the NCI Developmental Therapeutics Program. […] The stock solutions were prepared in dimethyl sulfoxide (DMSO, Sigma-Aldrich, St. Louis, MO, cat. D2650) at 800-fold the tested concentration and stored at -70 degrees C prior to their use. All drugs and investigational agents were tested over a range starting from a high concentration at or near the clinical Cmax and decreasing in half-log increments. If the clinical Cmax for an agent had not been determined, the highest concentration tested was 10 microM.
2.3 Cell Culture. All cells were maintained in an incubator at 37 degrees C and 5% CO2 with 95% humidity. The PDC lines were cultured according to standard operating procedures established by the NCI PDMR. All PDCs were thawed and cultured in Matrigel-coated flasks prepared with a working solution of 1X Ham's F-12 nutrient mix, without supplementation (Invitrogen, cat. 11765054), 100 U/mL penicillin-streptomycin (Invitrogen, cat. 15140122), and 2.5% Matrigel (Corning Inc., cat. 354248) for the first three passages. The 857933-349-R-J2-PDC line was cultured in 6C/Colon 1B media, which includes advanced DMEM/F-12 (Thermo Fisher Scientific, cat. 12634028), 10 mM HEPES (Thermo Fisher Scientific, cat. 15630080), 1X GlutaMAX supplement (Thermo Fisher Scientific, cat. 35050061), 0.1 mg/mL primocin (InvivoGen, cat. ant-pm-2), 10% defined fetal bovine serum, heat inactivated (HyClone Laboratories Inc., cat. SH30070.03HI), 50% L-WRN conditioned media (ATCC, cat. CRL-3276), 1.25 mM N-Acetyl-L-cysteine (Sigma-Aldrich, cat. A9165), 10 mM nicotinamide (Sigma-Aldrich, cat. N0636), 1X B-27 supplement (Thermo Fisher Scientific, cat. 17504044), 1X N-2 supplement (Thermo Fisher Scientific, cat. 17502048), 10 microM Y-27632 dihydrochloride (Tocris Bioscience, cat. 1254), and 50 ng/mL human EGF recombinant protein (Thermo Fisher Scientific, cat. PHG0311). The 485176-168-R4-J1-PDC line was cultured in Panc media, which includes all 6C/Colon 1B media components plus 100 ng/mL human FGF-10 (Thermo Fisher Scientific, cat. 100-26), 500 nM SB-431542 (Selleckchem, cat. S1067), and gastrin (Tocris, cat. 3006).
[…]

Setting [1] is: compound alone, run of 03/18/2024.

“And” between values parts separate entries of the source, which are not always exact repeats. Equal entries are not always repeated.

As a reminder, the viability, T/C is the result in the treated group divided by that in the control group, in per cent. Broadly, the IC50 is the concentration that inhibits the measured activity by half. As to `COc1ccc([C@@H](O)c2cc(-c3ncnc4cc(N5CCOCC5)ccc34)c(F)cc2Cl)nn1`, the viability, T/C is 97.1% and 112% (compound 0.0316 µM); 107% and 117% (compound 0.1 µM); 102% and 98.3% (compound 0.316 µM); 101% and 103% (compound 1 µM); 100% and 91% (compound 3.16 µM); 83% and 67.6% (compound 10 µM). Moreover, the IC50 (curve of compound) is more than 10000 nM.
In the case of `COc1cccc2c1C(=O)c1c(O)c3c(c(O)c1C2=O)CC(O)(C(=O)CO)CC3OC1CC(N)C(O)C(C)O1` (stereo not given), the viability, T/C runs as follows: (compound 0.0316 µM) 93% and 102% and 100%; (compound 0.1 µM) 89.2% and 78.7% and 73.9%; (compound 0.316 µM) 33.4% and 33.9% and 34.3%; (compound 1 µM) 19.4% and 18.2% and 21.9%; (compound 3.16 µM) 1.94% and 2.47% and 2.18%; (compound 10 µM) 0.14% and 0.19% and 0.1%. Further, the IC50 (curve of compound) was 231 nM and 221 nM and 215 nM.
In the case of `Cc1[nH]c2ccc(F)cc2c1-c1nc2c3cccnc3c3ncccc3c2[nH]1`, the viability, T/C is 99.2% [middle of 12 runs] (compound 0.0316 µM); 99.6% [middle of 12 runs] (compound 0.1 µM); 103% [middle of 12 runs] (compound 0.316 µM); 102% [middle of 12 runs] (compound 1 µM); 100% [middle of 12 runs] (compound 10 µM). In addition, the IC50 was more than 10000 nM under setting [1] and more than 10000 nM (compound alone, run of 03/26/2024).
In the case of `Cc1[nH]c2ccccc2c1CCNCc1ccc(/C=C/C(=O)NO)cc1`, the viability, T/C runs as follows: (compound 0.000999 µM) 103% and 99.2% and 97.9%; (compound 0.00316 µM) 98.1% and 105% and 101%; (compound 0.00999 µM) 110% and 118% and 113%; (compound 0.0316 µM) 114% (2×) and 115%; (compound 0.0999 µM) 49.5% and 57.8% and 96%; (compound 0.316 µM) 7.14% and 9% and 10.9%. Besides, for the setting “curve of compound”, the IC50 is 99.1 nM and 120 nM and 186 nM.
Turning to `Cc1cccc(N(C)C(=O)C2C(O)CCN2c2nc(C)cc(C(F)(F)F)c2C#N)c1` (stereo not given), the viability, T/C is 110% and 103% and 101% (compound 0.0316 µM); 94.9% and 106% and 101% (compound 0.1 µM); 97.7% and 98.8% and 106% (compound 0.316 µM); 97.1% and 104% and 90.2% (compound 1 µM); 96.7% and 109% and 108% (compound 3.16 µM); 97.8% and 103% and 95% (compound 10 µM). Also, the IC50 (curve of compound) is more than 10000 nM.
Regarding `Cc1cnc(CNC(=O)c2c(=O)c3ccc(N4CCCN(C)CC4)nc3n3c2sc2ccccc23)cn1`, the viability, T/C is 101% [middle of 11 runs] (compound 0.0316 µM); 82.4% [middle of 11 runs] (compound 0.1 µM); 57.1% [middle of 11 runs] (compound 0.316 µM); 42.3% [middle of 11 runs] (compound 1 µM); 37.6% [middle of 11 runs] (compound 3.16 µM); 31.1% [middle of 11 runs] (compound 10 µM). The 50% inhibitory concentration (IC50) under setting [1] is 582 nM [middle of 11 runs].
Take `Cn1ncnc1[C@H]1c2n[nH]c(=O)c3cc(F)cc(c23)N[C@@H]1c1ccc(F)cc1`: the viability, T/C was 93.9% and 104% and 90.5% (compound 0.000999 µM); 98% and 101% and 97% (compound 0.00316 µM); 104% and 103% and 98.8% (compound 0.00999 µM); 108% and 106% and 99.2% (compound 0.0316 µM); 112% and 104% and 98.9% (compound 0.0999 µM); 94.1% and 91.5% and 92.8% (compound 0.316 µM). For the same compound, the IC50 (curve of compound) was more than 316 nM.
In the case of `Nc1ccn(C2OC(CO)C(O)C2(F)F)c(=O)n1` (stereo not given), the viability, T/C is, setting by setting: (compound 0.0316 µM) 17.8% and 12.3% and 18.4%; (compound 0.1 µM) 9.82% and 7.07% and 9.32%; (compound 0.316 µM) 9.4% and 5.69% and 8.76%; (compound 1 µM) 10.4% and 6.8% and 10.7%; (compound 3.16 µM) 11.5% and 7.2% and 10.4%; (compound 10 µM) 9.06% and 6.96% and 7.8%. Besides, under “curve of compound”, the IC50 was less than 31.6 nM.
Consider `O=C(c1cc(Cc2n[nH]c(=O)c3ccccc23)ccc1F)N1CCN(C(=O)C2CC2)CC1`, for which the viability, T/C reads like this: (compound 0.0316 µM) 93.2% and 101% and 92.1%; (compound 0.1 µM) 92% and 98.2% and 93.7%; (compound 0.316 µM) 98.1% and 94.9% and 107%; (compound 1 µM) 101% (2×) and 99.2%; (compound 3.16 µM) 101% and 105% and 95.4%; (compound 10 µM) 91% and 84.7% and 87.8%. The IC50 (curve of compound) is more than 10000 nM.
For the compound `O=c1[nH]cc(F)c(=O)[nH]1`, the viability, T/C by setting is: (compound 0.0316 µM) 97% and 94.6% and 100%; (compound 0.1 µM) 103% and 94.6% and 105%; (compound 0.316 µM) 106% and 95.4% and 101%; (compound 1 µM) 96.8% and 100% and 101%; (compound 3.16 µM) 106% and 94.5% and 104%; (compound 10 µM) 104% and 106% and 103%. Also, the IC50 (curve of compound) was more than 10000 nM.
